# Experimental data from ChEMBL document CHEMBL3751774, “Synthesis and anti-tubercular activity of conformationally-constrained and bisquinoline analogs of TMC207” (Medchemcomm, 2015).
# Active and inactive are the calls of the source. The rule behind the calls is not given here.
# Experiments:
# [1] = target: ATP synthase; assay: Inhibition of Mycobacterium tuberculosis ATP synthase; assay type: protein-complex assay
# [2] = Cytotoxicity against Swiss mouse BMDM assessed as reduction in cell viability after 24 hrs by MTS assay
# [3] = Cytotoxicity against African green monkey Vero C1008 cells assessed as reduction in cell viability after 24 hrs by MTS assay; assay type: cell-based; details: Chlorocebus sabaeus
# [4] = tested on: Mycobacterium tuberculosis; assay: Antitubercular activity against Mycobacterium tuberculosis H37Rv assessed as growth inhibition after 4 weeks; assay type: functional; details: 672 h
# [5] = tested on: Mycobacterium tuberculosis; assay: Antitubercular activity against Mycobacterium tuberculosis H37Rv assessed as growth inhibition by BACTEC assay; assay type: functional
# [6] = tested on: Mycobacterium tuberculosis; assay: Antitubercular activity against Mycobacterium tuberculosis H37Rv infected in Swiss mouse assessed as mean survival time at 100 mg/kg, po 6 days/week for 28 days (reference value: 27.8 days); assay type: functional
# [7] = tested on: Mycobacterium tuberculosis; assay: Antitubercular activity against Mycobacterium tuberculosis H37Rv infected in human blood monocyte derived macrophages assessed as reduction in colony forming units at 4 times MIC incubated for 4 days measured after 4 weeks; assay type: functional, organism-based
# [8] = tested on: Mycobacterium tuberculosis; assay: Antitubercular activity against Mycobacterium tuberculosis H37Rv infected in mouse BMDM assessed as reduction in colony forming units at 4 times MIC incubated for 4 days measured after 4 weeks relative to control; assay type: functional; parameters: scale not given: the % may be the effect or the level left
# [9] = tested on: Mycobacterium tuberculosis; assay: Antitubercular activity against Mycobacterium tuberculosis H37Rv infected in Swiss mouse assessed as reduction in colony forming units in lungs at 50 mg/kg, po 6 days/week for 28 days measured after 3 to 4 weeks relative to control; assay type: functional
# [10] = tested on: Mycobacterium tuberculosis; assay: Antitubercular activity against Mycobacterium tuberculosis H37Rv infected in Swiss mouse assessed as reduction in colony forming units in lungs at 100 mg/kg, po 6 days/week for 28 days measured after 3 to 4 weeks relative to control; assay type: functional
# [11] = tested on: Mycobacterium tuberculosis; assay: Antitubercular activity against Mycobacterium tuberculosis H37Rv infected in Swiss mouse assessed as mean survival time at 50 mg/kg, po 6 days/week for 28 days (reference value: 27.8 days); assay type: functional
# [12] = tested on: Mycobacterium tuberculosis; assay: Antitubercular activity against Mycobacterium tuberculosis H37Rv infected in Swiss mouse assessed as mean survival time at 25 mg/kg, po for 28 days (reference value: 27.8 days); assay type: functional
# [13] = tested on: Mycobacterium tuberculosis; assay: Antitubercular activity against Mycobacterium tuberculosis H37Rv infected in Swiss mouse assessed as reduction in colony forming units in lungs at 25 mg/kg, po for 28 days measured after 3 to 4 weeks relative to control; assay type: functional
# [14] = tested on: Mycobacterium tuberculosis; assay: Antitubercular activity against Mycobacterium tuberculosis H37Rv infected in Swiss mouse assessed as reduction in colony forming units in lungs at 100 mg/kg, po for 28 days measured after 3 to 4 weeks relative to control; assay type: functional
# [15] = tested on: Mycobacterium tuberculosis; assay: Antitubercular activity against Mycobacterium tuberculosis H37Rv infected in Swiss mouse assessed as mean survival time at 100 mg/kg, po for 28 days (reference value: 27.8 days); assay type: functional
Compound,IC50 [1],MIC [4],MIC90 [5],further results
COc1nc2ccccc2cc1C(c1cc2ccccc2nc1OC)C(O)(CCN(C)C)c1ccc(Br)cc1 (stereo unspecified),10 nM,0.66 µM,–,IC50 [2]: > 100000 nM; IC50 [3]: > 100000 nM
C=CCCOc1nc2ccccc2cc1C(c1cc2ccccc2nc1OCCC=C)C(O)(CCN(C)C)c1ccc(Br)cc1 (stereo unspecified),80 nM,1.56 µM,–,IC50 [2]: > 100000 nM; IC50 [3]: > 100000 nM
C=CCOc1nc2ccccc2cc1C(c1cc2ccccc2nc1OCC=C)C(O)(CCN(C)C)c1cccc(Br)c1 (stereo unspecified),30 nM,> 50 µM,–,–
COc1nc2ccccc2cc1C(c1cc2ccccc2nc1OC)C(O)(CCN(C)C)c1cccc(Br)c1 (stereo unspecified),50 nM,1.56 µM,–,IC50 [2]: > 100000 nM; IC50 [3]: > 100000 nM
COc1nc2ccc(Br)cc2cc1[C@H](c1ccccc1)[C@@]1(O)c2ccc(Br)cc2C[C@@H]1CN(C)C (racemic),–,–,> 50 µM,–
COc1nc2ccc(Br)cc2cc1[C@H](c1ccccc1)[C@@]1(O)c2ccccc2C[C@@H]1CN(C)C (racemic),–,–,12.1 µM,–
COc1nc2ccc(Br)cc2cc1[C@H](c1ccccc1)[C@@]1(O)c2cc(C)ccc2C[C@@H]1CN(C)C (racemic),–,–,12.5 µM,–
COc1nc2ccc(Br)cc2cc1[C@@H](c1ccccc1)[C@@]1(O)c2cc(Cl)ccc2OCC[C@@H]1CN(C)C (racemic),–,–,> 50 µM,–
COc1nc2ccc(Br)cc2cc1[C@@H](c1ccccc1)[C@@]1(O)c2ccccc2C[C@@H]1CN(C)C (racemic),–,–,48.3 µM,–
COc1nc2ccccc2cc1C(c1cc2ccccc2nc1OC)C(O)(CCN(C)C)c1ccccc1 (stereo unspecified),70 nM,0.39 µM,–,IC50 [2]: > 100000 nM; MST [6]: 25 days; Activity [7]: Active; Activity [8]: 90%; IC50 [3]: > 100000 nM; fold change (FC) [9]: 118; fold change (FC) [10]: 808.22; MST [11]: 29 days
COc1nc2ccc(Br)cc2cc1[C@@H](c1ccccc1)[C@@]1(O)c2ccccc2CCC[C@@H]1CN(C)C (racemic),–,–,45.8 µM,–
COc1nc2ccccc2cc1C(c1cc2ccccc2nc1OC)C(O)(CCN(C)C)c1ccc2ccccc2c1 (stereo unspecified),30 nM,0.39 µM,–,IC50 [2]: > 100000 nM; Activity [7]: Active; Activity [8]: 91%; IC50 [3]: > 100000 nM
COc1nc2ccc(Br)cc2cc1[C@@H](c1ccccc1)[C@@]1(O)c2cc(Br)ccc2CC[C@@H]1CN(C)C (racemic),–,–,> 50 µM,–
COc1nc2ccc(Br)cc2cc1[C@H](c1ccccc1)[C@@]1(O)c2ccccc2OC[C@@H]1CN(C)C (racemic),–,–,> 50 µM,–
NNC(=O)c1ccncc1 [ISONIAZID],–,–,–,MST [12]: 29 days; Activity [8]: 98%; fold change (FC) [13]: 257.08
COc1nc2ccc(Br)cc2cc1[C@@H](c1ccccc1)[C@@]1(O)c2ccccc2OCC[C@@H]1CN(C)C (racemic),–,–,22.8 µM,–
C=CCOc1nc2ccccc2cc1C(c1cc2ccccc2nc1OCC=C)C(O)(CCN(C)C)c1ccccc1 (stereo unspecified),40 nM,> 50 µM,–,–
COc1nc2ccc(Br)cc2cc1[C@H](c1ccccc1)[C@@]1(O)c2cc(Cl)ccc2OCC[C@@H]1CN(C)C (racemic),–,–,> 50 µM,–
COc1nc2ccc(Br)cc2cc1[C@@H](c1ccccc1)[C@@]1(O)c2cc(C)ccc2C[C@@H]1CN(C)C (racemic),–,–,> 50 µM,–
C=CCOc1nc2ccccc2cc1C(c1cc2ccccc2nc1OCC=C)C(O)(CCN(C)C)c1ccc(Br)cc1 (stereo unspecified),280 nM,> 50 µM,–,–
COc1nc2ccc(Br)cc2cc1[C@H](c1ccccc1)[C@@]1(O)c2cc(Br)ccc2CC[C@@H]1CN(C)C (racemic),–,–,> 50 µM,–
COc1nc2ccc(Br)cc2cc1[C@@H](c1ccccc1)[C@@]1(O)c2ccccc2CC[C@@H]1CN(C)C (racemic),–,–,> 50 µM,–
COc1nc2ccc(Br)cc2cc1[C@@H](c1ccccc1)[C@@]1(O)c2ccc(Br)cc2C[C@@H]1CN(C)C (racemic),–,–,> 50 µM,–
CC[C@@H](CO)NCCN[C@@H](CC)CO [ETHAMBUTOL],–,–,–,fold change (FC) [14]: 26.94; MST [15]: 29 days
CN(C)CCC(O)(c1cccc(Br)c1)C1c2cc3ccccc3nc2OCC/C=C\CCOc2nc3ccccc3cc21 (stereo unspecified),10 nM,–,–,–
COc1nc2ccc(Br)cc2cc1[C@H](c1ccccc1)[C@@]1(O)c2ccccc2CC[C@@H]1CN(C)C (racemic),–,–,> 50 µM,–
CO[C@H]1/C=C/O[C@@]2(C)Oc3c(C)c(O)c4c(O)c(c(/C=N/N5CCN(C)CC5)c(O)c4c3C2=O)NC(=O)/C(C)=C\C=C\[C@H](C)[C@H](O)[C@@H](C)[C@@H](O)[C@@H](C)[C@H](OC(C)=O)[C@@H]1C [RIFAMPIN],–,–,–,Activity [8]: 98%
COc1nc2ccc(Br)cc2cc1[C@@H](c1ccccc1)[C@@]1(O)c2ccccc2OC[C@@H]1CN(C)C (racemic),–,–,> 50 µM,–
COc1nc2ccccc2cc1C(c1cc2ccccc2nc1OC)C(O)(CCN(C)C)c1cccc2ccccc12 (stereo unspecified),1 nM,0.7 µM,–,IC50 [2]: > 100000 nM; IC50 [3]: > 100000 nM
